Results as given in ChEMBL document CHEMBL1135109, “Discovery and initial SAR of imidazoquinoxalines as inhibitors of the Src-family kinase p56(Lck)” (Bioorg Med Chem Lett, 2002).

Experiments:
[1] = target: Tyrosine-protein kinase Lck (Homo sapiens, UniProt P06239)
Description: Inhibitory activity against recombinant p56 Lck tyrosine kinase expressed as a His-tagged protein in insect cells using a baculovirus expression system

T-cell = test: Compound was tested for potency against anti-CD3/anti-CD28 induced PBL proliferation of human peripheral blood T-cells

Tyrosine-protein kinase Lck, sequence (P06239 whole entry): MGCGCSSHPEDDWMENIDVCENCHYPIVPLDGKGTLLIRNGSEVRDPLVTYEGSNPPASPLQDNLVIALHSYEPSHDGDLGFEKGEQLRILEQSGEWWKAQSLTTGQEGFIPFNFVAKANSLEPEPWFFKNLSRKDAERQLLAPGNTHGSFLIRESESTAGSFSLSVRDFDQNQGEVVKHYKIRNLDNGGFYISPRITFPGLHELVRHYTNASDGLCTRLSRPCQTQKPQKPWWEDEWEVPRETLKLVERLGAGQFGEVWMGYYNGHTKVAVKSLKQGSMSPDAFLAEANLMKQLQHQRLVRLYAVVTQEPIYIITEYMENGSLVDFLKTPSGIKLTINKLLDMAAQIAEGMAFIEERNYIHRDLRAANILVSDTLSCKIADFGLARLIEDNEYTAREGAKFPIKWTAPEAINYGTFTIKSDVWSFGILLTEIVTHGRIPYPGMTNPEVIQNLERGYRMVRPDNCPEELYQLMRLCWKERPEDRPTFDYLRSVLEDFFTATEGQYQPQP

Structure (SMILES)	IC50 [1] [µM]	IC50 (T-cell) [µM]
Cc1cc(C)c(Nc2nc3ccccc3n3cncc23)c(C)c1	0.04	–
COc1ccc2c(nc(Nc3c(C)cccc3Cl)c3cnc(CO)n32)c1OC	0.0062	–
Cc1ncc2c(Nc3ccccc3Br)nc3ccccc3n12	0.18	–
Cc1ncn2c1c(Nc1ccccc1Cl)nc1ccccc12	0.03	–
Cc1ccccc1C(=O)Nc1nc2ccccc2n2cncc12	> 12.5	–
O=C(Nc1nc2ccccc2n2cncc12)c1ccccc1Br	0.06	–
COc1ccc2c(nc(Nc3c(C)cccc3Cl)c3cnc(C(C)O)n32)c1OC (stereo not drawn)	0.053	–
Cc1cccc(Cl)c1Nc1nc2ccccc2n2cncc12	0.009	7
c1ccc2c(c1)nc(Nc1ccncc1)c1cncn12	> 12.5	–
Brc1cccc(Br)c1Nc1nc2ccccc2n2cncc12	0.05	–
Cc1ccc(Nc2nc3ccccc3n3cncc23)c(Cl)c1	0.24	–
Brc1ccccc1Nc1nc2ccccc2n2ccnc12	> 50	–
Cc1cccc(C)c1Nc1nc2ccccc2n2cncc12	0.016	3
Brc1ccccc1Oc1nc2ccccc2n2cncc12	3.7	–
CCc1cccc(CC)c1Nc1nc2ccccc2n2cncc12	1.69	–
Brc1ccccc1Nc1nc2ccccc2n2cncc12	–	17
CCNC(=O)c1ncc2c(Nc3c(C)cccc3Cl)nc3c(OC)c(OC)ccc3n12	0.665	–
Cc1cc(C)c(Nc2nc3ccccc3n3cncc23)c(Cl)c1	0.03	–
COc1ccc2c(nc(Nc3c(C)cccc3Cl)c3cnc(/C=N/O)n32)c1OC	0.0043	–
COc1ccc2c(nc(Nc3c(C)cccc3Cl)c3cncn32)c1OC	0.002	0.67
Clc1cccc(Cl)c1Nc1nc2ccccc2n2cncc12	0.009	–
c1cncc(Nc2nc3ccccc3n3cncc23)c1	0.82	–
CN(c1ccccc1Cl)c1nc2ccccc2n2cncc12	> 12.5	–
COc1ccccc1Nc1nc2ccccc2n2cncc12	5.52	–
COc1ccc2c(nc(Nc3c(C)cccc3Cl)c3cnc(CCCO)n32)c1OC	0.069	–
c1ccc(Nc2nc3ccccc3n3cncc23)cc1	0.89	–
O=[N+]([O-])c1ccccc1Nc1nc2ccccc2n2cncc12	> 12.5	–
Clc1cccc(CCNc2nc3ccccc3n3cncc23)c1	4.39	–
CCCCCCNc1nc2ccccc2n2cncc12	> 12.5	–
c1ccc2c(c1)nc(NC1CCCCC1)c1cncn12	3.17	–

Further lines, with some results ahead:

IC50 [1] [µM]	Structure (SMILES)	IC50 (T-cell) [µM]
0.36	Fc1cccc(F)c1Nc1nc2ccccc2n2cncc12	–
0.06	Clc1ccccc1Nc1nc2ccccc2n2cncc12	–
> 12.5	c1ccc(CNc2nc3ccccc3n3cncc23)cc1	–
3.17	c1ccc2c(c1)nc(NC1CC1)c1cncn12	–
0.01	COc1ccc2c(nc(Nc3c(C)cccc3Cl)c3cnc(C=O)n32)c1OC	–
0.238	COc1ccc2c(nc(Nc3c(C)cccc3Cl)c3cnc(C(O)C(C)C)n32)c1OC (stereo not drawn)	–
1.33	Fc1cccc(Nc2nc3ccccc3n3cncc23)c1	–
2.68	CCCNc1nc2ccccc2n2cncc12	–
> 12.5	Brc1ccc(Nc2nc3ccccc3n3cncc23)cc1	–
0.0074	COc1ccc2c(nc(Nc3c(C)cccc3Cl)c3cnc(C)n32)c1OC	–
> 12.5	Brc1ccccc1Nc1nc2ccccc2n2cnc(-c3ccccc3)c12	–
0.81	O=C(Nc1nc2ccccc2n2cncc12)c1c(Cl)cccc1Cl	–
> 12.5	Cc1cccc(C)c1-c1nc2ccccc2n2cncc12	–
> 12.5	Brc1ccccc1Sc1nc2ccccc2n2cncc12	–
0.39	Fc1ccccc1Nc1nc2ccccc2n2cncc12	–
